Data set [1] is described as follows: Spray pattern of solvent matrices from Pfeiffer unit-dose devices. It counts as physicochemical. As to conditions: 100 μL, Pfeiffer unit-dose device, 20-25° C. On the procedure: (§1) Fourteen representative solvent matrices used for clonazepam formulations were tested for spray pattern and compared with water. The solvent mixtures were made up, spiked with minute amounts of Coomassie Brilliant Blue Dye and 100 μL were subsequently filled into Pfeiffer unit-dose devices (Pfeiffer of America, Princeton, N.J.). To measure the spray pattern, the devices were actuated below a sheet of paper that was located 3 cm above the spray nozzle. All measurements were made at ambient room temperature (20-25° C.). The smallest (Dmin) and the largest (Dmax) diameter of the blue pattern formed on the sheet of paper were measured and the results used to calculate the Dmax/Dmin ratio, the area of the pattern and the average spray angle. The plume area at 3 cm was calculated using the equation for the area of an ellipse using the half of the two diameters as the ellipse radii. Viscosity of all formulations was measured using Brookfield DV-I viscometer (Brookfield Engineering Laboratories, Inc., Middleboro, Mass.).

Data set [2] in a line: Viscosity of solvent matrices. It counts as physicochemical. The conditions noted are these: for measured viscosity: Gilmont falling ball viscometer. On the procedure:
as §1
As weather may dictate substantially different conditions of use, the effect of temperature on viscosity was determined. A Gilmont falling ball viscometer was filled with diethylene glycol monoethyl ether and calibrated for several hours at each temperature.

Data set [3] can be described thus: Human pharmacokinetic, safety and tolerability study (oral, intravenous, intranasal cross-over). The conditions noted are these: metabolite after 1 mg clonazepam. On the procedure: The human pharmacokinetics, safety, and tolerability of the clonazepam compositions of the present invention formulated for intranasal delivery for therapeutic applications are evaluated using standard clinical procedures. Clonazepam compositions formulated for intranasal delivery are provided, for example, for application by the participants to intranasal mucosa.
A primary objective of initial studies in humans is to determine and compare pharmacokinetic profiles of three dosage forms of clonazepam: oral, i.v., and intranasal, following single administration. An example of such a study in humans is a cross-over study performed in 12 healthy male volunteers. Plasma and urine level of clonazepam and 7-amino-clonazepam are determined, for example, using HPLC and UV detection. […] Further the initial studies in humans are used to determine local tolerability of intranasal formulation using questionnaire and the Visual Analog Scale (VAS). VAS is a validated instrument that has been used in numerous studies to quantify subjective opening of the nasal passages. In addition, cognitive, sleepiness and mood effects are evaluated using questionnaires and scales (see, e.g., Example 10 below). Further, attention and vigilance may be evaluated using, for example, LEEDS Psychomotor Multiple Choice Reaction Time (MCRT) testing.
A human pharmacokinetic study was carried out as described in Example 8.
15 young, healthy male volunteers received a single dose of 1 mg clonazepam by oral, intravenous and intranasal routes in a three-period cross-over design.

In the case of `O` [Water], in data set [1], the “Plume area at 3 cm (cm^2)” value was found to be 15.52 cm^2 and the “Ratio Dmax/Dmin” value came out at 1.10. Moreover, the “Avg. viscosity (cP)” value in data set [2] (Brookfield DV-I viscometer, solvent matrix without clonazepam) stood at 1.0 cP.
Turning to `CCOCCOCCO` [diethylene glycol monoethyl ether, Diethylene glycol monoethyl ether], the measured viscosity in data set [2] (8° C.) is listed as 5.4 cP; in data set [2] (23° C.), 3.8 cP; in data set [2] (40° C.), 3.1 cP; in data set [2] (−17° C.), 6.6 cP.
With `Nc1ccc2c(c1)C(c1ccccc1Cl)=NCC(=O)N2` [7-Amino-clonazepam], the “mean AUCt” value in data set [3] (intranasal route) was 16.9 ng·h/mL; in data set [3] (intravenous route) it was “approximately 30 ng·h/mL”; in data set [3] (oral route), “approximately 30 ng·h/mL”. Moreover, the “mean Cmax” value in data set [3] (intranasal route, 24-hour sampling) is listed as 1.17 ng/mL; in data set [3] (intravenous route) it was “approximately 2 ng/mL”; in data set [3] (oral route), “approximately 2 ng/mL”.

The record behind these values is patent US8716279B2, “Pharmaceutical compositions of clonazepam and method of use thereof” (Jazz Pharmaceuticals, Inc., priority 2006, dated 2014).
